We go through 6 molecules from BindingDB's records for doi:10.1016/j.ejmech.2022.114684 (Shanghai Institute of Materia Medica, 2022).

Some results are limits rather than exact numbers.

The target of the first test is T1, Transcriptional coactivator YAP1 (Homo sapiens, UniProt P46937). As to the kind of experiment: Inhibition of YAP (unknown origin) incubated for 24 hrs by Promega Dual-Luciferase Reporter Assay. A general note: Reporter assays use an easily measured gene product as a stand-in for the process of interest.
T1 sequence (P46937 whole entry): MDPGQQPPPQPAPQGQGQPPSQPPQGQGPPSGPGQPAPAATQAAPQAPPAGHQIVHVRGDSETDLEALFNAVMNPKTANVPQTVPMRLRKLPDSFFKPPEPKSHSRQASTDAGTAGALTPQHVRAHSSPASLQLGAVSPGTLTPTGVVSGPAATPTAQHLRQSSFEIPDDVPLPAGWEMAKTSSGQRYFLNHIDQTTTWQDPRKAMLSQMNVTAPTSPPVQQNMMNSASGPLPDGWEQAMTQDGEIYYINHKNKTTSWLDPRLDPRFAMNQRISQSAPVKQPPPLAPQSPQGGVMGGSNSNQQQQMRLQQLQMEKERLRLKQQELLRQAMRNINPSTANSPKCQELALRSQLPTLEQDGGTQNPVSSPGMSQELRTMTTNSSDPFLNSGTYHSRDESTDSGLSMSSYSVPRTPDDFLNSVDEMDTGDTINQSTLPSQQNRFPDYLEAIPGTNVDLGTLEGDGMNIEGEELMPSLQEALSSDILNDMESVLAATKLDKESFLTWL
As for `COC(=O)c1cc(S(N)(=O)=O)ccc1NC1CCCCC1`, the IC50 (commonly the concentration that inhibits the measured activity by half) amounted to 454 nM.

`CC(NC(=O)c1cc2nc(N(C)C)n(-c3ccc(Br)cc3)c2s1)c1ccccn1` (stereo unspecified) came in with an IC50 of 391 nM.

In the case of `CNS(=O)(=O)c1ccc(Nc2ccc(C(F)(F)F)cc2)c(-c2cn(C)cn2)c1`, the IC50 is 1 nM.

The next test concerns the target T1, Transcriptional coactivator YAP1. As to the kind of experiment: Inhibition of YAP in HEK293T cells incubated for 24 hrs by Promega Dual-Luciferase Reporter Assay.
Molecule `N#CCNC(=O)c1ccc2c(Oc3ccc(C(F)(F)F)cc3)cccc2c1` [N-(cyanomethyl)-5-(4-(trifluoromethyl)phenoxy)-2-naphthamid] had a 50% inhibitory concentration (IC50) of less than 100 nM.

In turn, `CS(=O)(=O)NC(=O)c1ccc2c(Oc3ccc(C(F)(F)F)cc3)cccc2c1` [N-(methylsulfonyl)-5-(4-(trifluoromethyl)phenoxy)-2-naphthamide] showed an IC50 of less than 100 nM.

In the case of `CC(C)NC(=O)c1ccc2c(Oc3cccc(Cl)c3)cccc2c1` [5-(3-chlorophenoxy)-N-isopropyl-2-naphthamide], the IC50 was less than 100 nM.
